Like-named read-outs stand apart in the source and are kept apart here.
Legend:
[1] = system: unseparated and low density nucleated cells; settings: 80 μg/kg s.c.; for % CHG, nucleated cellularity PBL-LD / % CHG, nucleated cellularity PBL-US / Fold Change Compared to TIME = 0, nucleated cellularity PBL-LD, MEAN / Fold Change Compared to TIME = 0, nucleated cellularity PBL-US, MEAN: average of 5 donors
[2] = system: granulocyte macrophage (CFU-GM), erythroid (BFU-E), and multipotential (CFU-GEMM) progenitor cells; settings: mice; for Fold Change Compared to Time 0, Progenitors, BFU-E / Fold Change Compared to Time 0, Progenitors, CFU-GEMM / Fold Change Compared to Time 0, Progenitors, GM / Absolute Progenitors Per ML Blood, BFU-E / Absolute Progenitors Per ML Blood, CFU-GEMM / Absolute Progenitors Per ML Blood, CFU-GM: methylcellulose culture; for Absolute Number Progenitors Per ML Blood, BFU-E / Absolute Number Progenitors Per ML Blood, CFU-GEMM / Absolute Number Progenitors Per ML Blood, CFU-GM: 1 hour post administration; for Absolute Progenitors Per ML Blood, BFU-E / Absolute Progenitors Per ML Blood, CFU-GEMM / Absolute Progenitors Per ML Blood, CFU-GM: single s.c. 5 mg/Kg

c1cc(CN2CCCNCCNCCCNCC2)ccc1CN1CCCNCCNCCCNCC1 [AMD3100, 1,1′-[1,4-phenylene-bis(methylene)]-bis-1,4,8,11-tetraazacyclotetradecane]
FOLD CHANGE COMPARED TO TIME = 0, nucleated cellularity PBL-US ([1]; P3, T = 1 h after injection): 1.38 fold | FOLD CHANGE COMPARED TO TIME = 0, nucleated cellularity PBL-LD ([1]; P3, T = 3 h after injection): 2.17 fold | FOLD CHANGE COMPARED TO TIME = 0, nucleated cellularity PBL-US ([1]; P3, T = 3 h after injection): 2.02 fold | FOLD CHANGE COMPARED TO TIME = 0, nucleated cellularity PBL-LD ([1]; P3, T = 6 h after injection): 2.27 fold | FOLD CHANGE COMPARED TO TIME = 0, nucleated cellularity PBL-US ([1]; P3, T = 6 h after injection): 2.74 fold | FOLD CHANGE COMPARED TO TIME = 0, nucleated cellularity PBL-LD ([1]; P3, T = 9 h after injection): 2.47 fold | FOLD CHANGE COMPARED TO TIME = 0, nucleated cellularity PBL-US ([1]; P3, T = 9 h after injection): 2.69 fold | FOLD CHANGE COMPARED TO TIME = 0, nucleated cellularity PBL-LD ([1]; P3, T = 24 h after injection): 0.79 fold | FOLD CHANGE COMPARED TO TIME = 0, nucleated cellularity PBL-US ([1]; P3, T = 24 h after injection): 0.96 fold | FOLD CHANGE COMPARED TO TIME = 0, nucleated cellularity PBL-LD ([1]; P4, T = 1 h after injection): 1.66 fold | FOLD CHANGE COMPARED TO TIME = 0, nucleated cellularity PBL-US ([1]; P4, T = 1 h after injection): 1.36 fold | FOLD CHANGE COMPARED TO TIME = 0, nucleated cellularity PBL-LD ([1]; P4, T = 3 h after injection): 2.82 fold | FOLD CHANGE COMPARED TO TIME = 0, nucleated cellularity PBL-US ([1]; P4, T = 3 h after injection): 2.46 fold | FOLD CHANGE COMPARED TO TIME = 0, nucleated cellularity PBL-LD ([1]; P4, T = 6 h after injection): 2.78 fold | FOLD CHANGE COMPARED TO TIME = 0, nucleated cellularity PBL-US ([1]; P4, T = 6 h after injection): 2.60 fold | FOLD CHANGE COMPARED TO TIME = 0, nucleated cellularity PBL-LD ([1]; P4, T = 9 h after injection): 2.48 fold | FOLD CHANGE COMPARED TO TIME = 0, nucleated cellularity PBL-US ([1]; P4, T = 9 h after injection): 2.24 fold | FOLD CHANGE COMPARED TO TIME = 0, nucleated cellularity PBL-LD ([1]; P4, T = 24 h after injection): 0.60 fold | FOLD CHANGE COMPARED TO TIME = 0, nucleated cellularity PBL-US ([1]; P4, T = 24 h after injection): 0.77 fold | FOLD CHANGE COMPARED TO TIME = 0, nucleated cellularity PBL-LD ([1]; P5, T = 1 h after injection): 2.10 fold | FOLD CHANGE COMPARED TO TIME = 0, nucleated cellularity PBL-US ([1]; P5, T = 1 h after injection): 1.76 fold | FOLD CHANGE COMPARED TO TIME = 0, nucleated cellularity PBL-LD ([1]; P5, T = 3 h after injection): 3.20 fold | FOLD CHANGE COMPARED TO TIME = 0, nucleated cellularity PBL-US ([1]; P5, T = 3 h after injection): 3.23 fold | FOLD CHANGE COMPARED TO TIME = 0, nucleated cellularity PBL-LD ([1]; P5, T = 6 h after injection): 5.30 fold | FOLD CHANGE COMPARED TO TIME = 0, nucleated cellularity PBL-US ([1]; P5, T = 6 h after injection): 4.04 fold | FOLD CHANGE COMPARED TO TIME = 0, nucleated cellularity PBL-LD ([1]; P5, T = 9 h after injection): 5.17 fold | FOLD CHANGE COMPARED TO TIME = 0, nucleated cellularity PBL-US ([1]; P5, T = 9 h after injection): 3.96 fold | FOLD CHANGE COMPARED TO TIME = 0, nucleated cellularity PBL-LD ([1]; P5, T = 24 h after injection): 1.12 fold | FOLD CHANGE COMPARED TO TIME = 0, nucleated cellularity PBL-US ([1]; P5, T = 24 h after injection): 0.99 fold | % CHG, nucleated cellularity PBL-LD ([1]; T = 1 h after injection): 86.2% | % CHG, nucleated cellularity PBL-US ([1]; T = 1 h after injection): 68.6% | Fold Change Compared to TIME = 0, nucleated cellularity PBL-LD, MEAN ([1]; T = 1 h after injection): 1.86 fold | Fold Change Compared to TIME = 0, nucleated cellularity PBL-US, MEAN ([1]; T = 1 h after injection): 1.69 fold | % CHG, nucleated cellularity PBL-LD ([1]; T = 3 h after injection): 185.6% | % CHG, nucleated cellularity PBL-US ([1]; T = 3 h after injection): 180.2% | Fold Change Compared to TIME = 0, nucleated cellularity PBL-LD, MEAN ([1]; T = 3 h after injection): 2.86 fold | Fold Change Compared to TIME = 0, nucleated cellularity PBL-US, MEAN ([1]; T = 3 h after injection): 2.80 fold | % CHG, nucleated cellularity PBL-LD ([1]; T = 6 h after injection): 266.3% | % CHG, nucleated cellularity PBL-US ([1]; T = 6 h after injection): 225.8% | Fold Change Compared to TIME = 0, nucleated cellularity PBL-LD, MEAN ([1]; T = 6 h after injection): 3.66 fold | Fold Change Compared to TIME = 0, nucleated cellularity PBL-US, MEAN ([1]; T = 6 h after injection): 3.26 fold | % CHG, nucleated cellularity PBL-LD ([1]; T = 9 h after injection): 264.3% | % CHG, nucleated cellularity PBL-US ([1]; T = 9 h after injection): 209.4% | Fold Change Compared to TIME = 0, nucleated cellularity PBL-LD, MEAN ([1]; T = 9 h after injection): 3.64 fold | Fold Change Compared to TIME = 0, nucleated cellularity PBL-US, MEAN ([1]; T = 9 h after injection): 3.09 fold | % CHG, nucleated cellularity PBL-LD ([1]; T = 24 h after injection): 4.6% | % CHG, nucleated cellularity PBL-US ([1]; T = 24 h after injection): 7.0% | Fold Change Compared to TIME = 0, nucleated cellularity PBL-LD, MEAN ([1]; T = 24 h after injection): 1.05 fold | Fold Change Compared to TIME = 0, nucleated cellularity PBL-US, MEAN ([1]; T = 24 h after injection): 1.07 fold | Fold Change Compared to Time 0, Progenitors, BFU-E ([2]; Time 2′): 2.07 fold | Fold Change Compared to Time 0, Progenitors, CFU-GEMM ([2]; Time 2′): 1.85 fold | Fold Change Compared to Time 0, Progenitors, GM ([2]; Time 2′): 2.86 fold | Fold Change Compared to Time 0, Progenitors, BFU-E ([2]; Time 15″): 2.72 fold | Fold Change Compared to Time 0, Progenitors, CFU-GEMM ([2]; Time 15″): 3.51 fold | Fold Change Compared to Time 0, Progenitors, GM ([2]; Time 15″): 2.73 fold | Fold Change Compared to Time 0, Progenitors, BFU-E ([2]; Time 30″): 4.24 fold | Fold Change Compared to Time 0, Progenitors, CFU-GEMM ([2]; Time 30″): 4.41 fold | Fold Change Compared to Time 0, Progenitors, GM ([2]; Time 30″): 6.23 fold | Absolute Number Progenitors Per ML Blood, BFU-E ([2]; single s.c. 1 mg/kg): 62 Per ML Blood | Absolute Number Progenitors Per ML Blood, CFU-GEMM ([2]; single s.c. 1 mg/kg): 27.1 Per ML Blood | Absolute Number Progenitors Per ML Blood, CFU-GM ([2]; single s.c. 1 mg/kg): 424 Per ML Blood | Absolute Number Progenitors Per ML Blood, BFU-E ([2]; single s.c. 2.5 mg/kg): 98.9 Per ML Blood | Absolute Number Progenitors Per ML Blood, CFU-GEMM ([2]; single s.c. 2.5 mg/kg): 70.6 Per ML Blood | Absolute Number Progenitors Per ML Blood, CFU-GM ([2]; single s.c. 2.5 mg/kg): 687.6 Per ML Blood | Absolute Progenitors Per ML Blood, BFU-E ([2]; 15″): 134.5 Per ML Blood | Absolute Progenitors Per ML Blood, CFU-GEMM ([2]; 15″): 90.4 Per ML Blood | Absolute Progenitors Per ML Blood, CFU-GM ([2]; 15″): 791.6 Per ML Blood | Absolute Progenitors Per ML Blood, BFU-E ([2]; 30″): 209.3 Per ML Blood | Absolute Progenitors Per ML Blood, CFU-GEMM ([2]; 30″): 113.5 Per ML Blood | Absolute Progenitors Per ML Blood, CFU-GM ([2]; 30″): 1805.5 Per ML Blood | Absolute Progenitors Per ML Blood, BFU-E ([2]; 120″): 102.3 Per ML Blood | Absolute Progenitors Per ML Blood, CFU-GEMM ([2]; 120″): 47.6 Per ML Blood | Absolute Progenitors Per ML Blood, CFU-GM ([2]; 120″): 828.7 Per ML Blood | Absolute Number Progenitors Per ML Blood, BFU-E ([2]; single s.c. 5 mg/kg): 92.8 Per ML Blood | Absolute Number Progenitors Per ML Blood, CFU-GEMM ([2]; single s.c. 5 mg/kg): 69.5 Per ML Blood | Absolute Number Progenitors Per ML Blood, CFU-GM ([2]; single s.c. 5 mg/kg): 608.4 Per ML Blood | Absolute Number Progenitors Per ML Blood, BFU-E ([2]; single s.c. 10 mg/kg): 120.5 Per ML Blood | Absolute Number Progenitors Per ML Blood, CFU-GEMM ([2]; single s.c. 10 mg/kg): 79.8 Per ML Blood | Absolute Number Progenitors Per ML Blood, CFU-GM ([2]; single s.c. 10 mg/kg): 825.6 Per ML Blood
